The values below come from publication PMC6429214, “Design, Synthesis and Biological Evaluation of Isoxazole-Based CK1 Inhibitors Modified with Chiral Pyrrolidine Scaffolds” (Molecules, 2019).

One series deals with HT-29 cells. The experiment in a line: MTT cell viability assay HT-29. Particulars: Homo sapiens, HT-29, 48 h, mean ± SD. The series is classed as cell-based, human. The procedure: The human colon adenocarcinoma cell line HT-29 was grown in McCoy’s 5A medium, whereas MCF7 cells were grown in DMEM medium. All media were supplemented with 10% fetal calf serum (FCS), 100 units/mL penicillin, 100 µg/mL streptomycin and 2 mM glutamine. All cells were grown at 37 °C in a humidified 5% carbon dioxide atmosphere.
In order to analyze the effects of selected inhibitors on the cell viability of HT-29 and MCF7 cells, MTT assays were performed. 1 × 10^4 cells/well were seeded in 96-well cell culture plates. After 24 h cells were treated with increasing concentrations of the indicated inhibitor compounds, with untreated and DMSO-treated cells as control. After an incubation period of 48 h, 10 µL of MTT solution (5 mg/mL in PBS) were added and cells were incubated for 4 h. MTT-containing medium was carefully removed and 100 µL acidic isopropanol (0.04 N HCl in isopropanol) per well were added. To dissolve formazan crystals, plates were shaken for 30 min on an orbital shaker in the dark. Finally, dissolved crystals were measured spectrophotometrically at 570 nm. All experiments were performed in triplicate with four technical replicates per assay. Results were normalized considering the mean optical density value of control wells as 100%. GraphPad Prism 6 software (San Diego, CA, USA) was used to calculate EC50 values.
In general terms: Tetrazolium dyes change colour on reduction, which living cells bring about.

Series [1] in a line: LC-MS of aqueous solutions with and without PEG. It is filed as physicochemical. Particulars: LC-MS over 7 days, not in solutions without PEG. An excerpt:
Since all analytical data for the originally employed inhibitors was consistent with the given structures, we postulate that the incorporation of an additional methylene group occurred via spontaneous Pictet-Spengler cyclization during crystallization. In line with this notion, PEG, which has been used in our soaking solutions, is known to generate formaldehyde traces that have been shown in the past to affect the derivatization of both, proteins and ligands. To further corroborate this hypothesis, we examined whether simple exposure of 29d/e to formaldehyde would give rise to the same Pictet-Spengler products 31a/b (Scheme 5). Indeed, when compounds 29d/e were treated with formaldehyde at room temperature 31a/b were formed readily and the obtained spectroscopic data was consistent with the predicted Pictet-Spengler products. In addition, aqueous solutions of 29d and 29e with and without PEG were analyzed by liquid chromatography-mass spectrometry (LC-MS) over a period of 7 days.
LC-MS was performed with a Bruker Esquire ~LC ion trap mass spectrometer (Bremen, Germany) in the positive ion mode (dry gas 9 L/min, nebulizer 35 psi, drying temperature 350 °C) after chromatographic separation using an Agilent 1100 HPLC system (Waldbronn, Germany) with a RP-8 column (Agilent Eclipse XDB-C8, 150 × 4.6 mm, 5 μm) and a 0.1% acetic acid/acetonitrile gradient.

The next series deals with T1, BUB1B (Homo sapiens, UniProt O60566).
T1 construct: purchased ProQinase
The experiment in a line: 33PanQinase panel. Particulars: read-out: Residual Activity (%). The series is classed as biochemical. The method, boiled down: (§1)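 Percent residual kinase activity versus DMSO control, from a radiometric 33PanQinase assay at 1 µM compound.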

The next series deals with T2, CDK19/CycC (Homo sapiens, UniProt Q9BWU1).
T2 construct: purchased ProQinase
The experiment in a line: 33PanQinase panel. It is filed as biochemical. Particulars: read-out: Residual Activity (%). The method, boiled down: as §1

Another series concerns the target T3, DYRK4 (Homo sapiens, UniProt Q9NR20).
T3 construct: purchased ProQinase
Briefly: 33PanQinase panel. The series is classed as biochemical. Particulars: DYRK4, 1 µM; read-out: Residual Activity (%). In a few lines:
as §1

A further series concerns the target T4, EPHB2 (Homo sapiens, UniProt P29323).
T4 construct: purchased ProQinase
The experiment in a line: 33PanQinase panel. It is filed as biochemical. Particulars: EPHB2, 1 µM; read-out: Residual Activity (%). The method, boiled down:
as §1

The next series has as its target T5, LIMK1 (Homo sapiens, UniProt P53667).
T5 construct: purchased ProQinase
The experiment in a line: 33PanQinase panel. The series is classed as biochemical. Particulars: LIMK1, 1 µM; read-out: Residual Activity (%). The method, boiled down:
as §1

The target of another series is T6, SAK (Homo sapiens, UniProt O00444).
T6 construct: purchased ProQinase
Briefly: 33PanQinase panel. It is filed as biochemical. Particulars: read-out: Residual Activity (%). In a few lines:
as §1

Another series has as its target T7, TSF1 (Homo sapiens, UniProt O75716).
T7 construct: purchased ProQinase
Briefly: 33PanQinase panel. The series is classed as biochemical. Particulars: TSF1, 1 µM; read-out: Residual Activity (%). In a few lines:
as §1

Another series addresses T8, mTOR (Homo sapiens, UniProt P42345).
T8 construct: purchased ProQinase
The experiment in a line: 33PanQinase panel. The series is classed as biochemical. Particulars: read-out: Residual Activity (%). In a few lines: as §1

One may read the viability as a per cent measure of how many cells are alive, often set against a control. Read a high viability as less harm to the cells. What is called EC50 is the concentration giving half of the maximal effect.

T4 sequence (P29323 19-1055): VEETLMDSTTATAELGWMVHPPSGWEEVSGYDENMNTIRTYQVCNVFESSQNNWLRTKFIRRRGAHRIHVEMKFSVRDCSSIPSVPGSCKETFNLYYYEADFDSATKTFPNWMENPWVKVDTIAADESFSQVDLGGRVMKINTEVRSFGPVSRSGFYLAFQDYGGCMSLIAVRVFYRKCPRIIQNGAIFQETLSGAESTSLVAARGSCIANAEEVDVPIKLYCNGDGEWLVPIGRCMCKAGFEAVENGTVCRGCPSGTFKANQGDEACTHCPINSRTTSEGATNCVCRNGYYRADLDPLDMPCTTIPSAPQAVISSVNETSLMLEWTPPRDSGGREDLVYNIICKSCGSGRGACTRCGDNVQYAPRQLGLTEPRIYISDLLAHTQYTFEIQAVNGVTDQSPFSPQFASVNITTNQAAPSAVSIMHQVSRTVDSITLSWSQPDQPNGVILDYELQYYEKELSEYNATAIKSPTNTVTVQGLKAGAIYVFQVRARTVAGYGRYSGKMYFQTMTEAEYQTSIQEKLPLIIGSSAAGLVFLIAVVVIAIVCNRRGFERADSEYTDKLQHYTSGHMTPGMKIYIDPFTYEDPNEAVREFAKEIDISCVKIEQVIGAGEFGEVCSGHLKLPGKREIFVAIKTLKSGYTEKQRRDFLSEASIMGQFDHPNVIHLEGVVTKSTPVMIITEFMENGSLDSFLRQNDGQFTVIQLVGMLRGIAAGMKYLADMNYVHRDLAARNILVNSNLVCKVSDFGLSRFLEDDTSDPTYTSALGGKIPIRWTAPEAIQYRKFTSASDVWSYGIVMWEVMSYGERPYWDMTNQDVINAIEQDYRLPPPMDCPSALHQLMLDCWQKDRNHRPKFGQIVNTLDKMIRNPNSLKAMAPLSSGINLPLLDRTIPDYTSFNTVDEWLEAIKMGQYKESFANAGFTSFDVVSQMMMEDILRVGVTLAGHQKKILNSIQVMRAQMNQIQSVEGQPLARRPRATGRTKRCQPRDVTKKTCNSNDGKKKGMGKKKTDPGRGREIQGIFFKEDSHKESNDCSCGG
T2 sequence (Q9BWU1 whole entry): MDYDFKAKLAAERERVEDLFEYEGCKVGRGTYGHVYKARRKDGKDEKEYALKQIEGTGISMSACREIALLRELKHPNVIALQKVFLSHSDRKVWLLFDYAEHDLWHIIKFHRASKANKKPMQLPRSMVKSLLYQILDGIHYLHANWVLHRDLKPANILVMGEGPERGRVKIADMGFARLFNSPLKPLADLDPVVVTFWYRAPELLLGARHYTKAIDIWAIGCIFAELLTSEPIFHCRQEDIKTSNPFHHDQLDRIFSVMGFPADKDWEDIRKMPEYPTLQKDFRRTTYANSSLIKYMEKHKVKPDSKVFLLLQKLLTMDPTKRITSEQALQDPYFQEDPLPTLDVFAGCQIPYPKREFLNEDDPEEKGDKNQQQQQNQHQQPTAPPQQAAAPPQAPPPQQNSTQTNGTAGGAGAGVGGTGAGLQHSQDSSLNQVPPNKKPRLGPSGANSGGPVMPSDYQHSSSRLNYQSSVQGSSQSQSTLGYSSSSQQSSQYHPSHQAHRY
T2 sequence (P24863 whole entry partner): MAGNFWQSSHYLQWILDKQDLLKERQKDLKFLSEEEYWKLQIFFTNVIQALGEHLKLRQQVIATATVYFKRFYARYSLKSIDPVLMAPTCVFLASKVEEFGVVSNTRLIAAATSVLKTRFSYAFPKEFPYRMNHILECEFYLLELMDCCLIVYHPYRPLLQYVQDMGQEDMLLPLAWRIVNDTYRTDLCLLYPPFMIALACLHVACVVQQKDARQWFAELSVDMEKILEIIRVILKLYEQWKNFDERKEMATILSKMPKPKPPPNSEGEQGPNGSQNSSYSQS
T3 sequence (Q9NR20 whole entry): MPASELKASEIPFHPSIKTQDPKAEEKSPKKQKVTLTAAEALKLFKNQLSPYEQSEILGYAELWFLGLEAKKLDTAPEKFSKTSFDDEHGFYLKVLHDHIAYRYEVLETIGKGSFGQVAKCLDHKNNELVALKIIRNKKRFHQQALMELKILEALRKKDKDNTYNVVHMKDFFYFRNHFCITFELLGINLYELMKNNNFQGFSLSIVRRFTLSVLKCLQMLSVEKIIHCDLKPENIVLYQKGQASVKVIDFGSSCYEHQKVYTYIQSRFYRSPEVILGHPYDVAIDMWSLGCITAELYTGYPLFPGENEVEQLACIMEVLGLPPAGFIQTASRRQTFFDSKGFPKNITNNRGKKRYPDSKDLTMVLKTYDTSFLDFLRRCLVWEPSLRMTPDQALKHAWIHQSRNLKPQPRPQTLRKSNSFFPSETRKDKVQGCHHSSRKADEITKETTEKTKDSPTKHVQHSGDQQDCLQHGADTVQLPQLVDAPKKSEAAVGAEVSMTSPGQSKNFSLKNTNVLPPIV
T5 sequence (P53667 whole entry): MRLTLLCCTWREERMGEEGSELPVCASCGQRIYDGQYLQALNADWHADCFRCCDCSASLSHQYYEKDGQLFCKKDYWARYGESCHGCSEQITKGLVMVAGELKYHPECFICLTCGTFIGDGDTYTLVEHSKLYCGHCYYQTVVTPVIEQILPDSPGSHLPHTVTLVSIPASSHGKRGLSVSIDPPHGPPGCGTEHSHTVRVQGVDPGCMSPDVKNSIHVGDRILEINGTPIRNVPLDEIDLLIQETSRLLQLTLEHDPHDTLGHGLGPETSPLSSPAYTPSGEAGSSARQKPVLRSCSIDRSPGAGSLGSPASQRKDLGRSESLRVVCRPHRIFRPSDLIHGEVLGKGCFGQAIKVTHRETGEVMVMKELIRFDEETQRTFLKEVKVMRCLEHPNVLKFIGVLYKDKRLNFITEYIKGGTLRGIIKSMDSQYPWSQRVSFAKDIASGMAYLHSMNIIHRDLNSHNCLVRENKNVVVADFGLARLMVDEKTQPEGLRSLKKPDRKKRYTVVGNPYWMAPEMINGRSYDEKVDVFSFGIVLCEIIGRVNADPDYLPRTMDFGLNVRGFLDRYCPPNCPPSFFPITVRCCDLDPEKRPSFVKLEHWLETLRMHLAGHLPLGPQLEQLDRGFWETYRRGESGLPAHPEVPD
T6 sequence (O00444 whole entry): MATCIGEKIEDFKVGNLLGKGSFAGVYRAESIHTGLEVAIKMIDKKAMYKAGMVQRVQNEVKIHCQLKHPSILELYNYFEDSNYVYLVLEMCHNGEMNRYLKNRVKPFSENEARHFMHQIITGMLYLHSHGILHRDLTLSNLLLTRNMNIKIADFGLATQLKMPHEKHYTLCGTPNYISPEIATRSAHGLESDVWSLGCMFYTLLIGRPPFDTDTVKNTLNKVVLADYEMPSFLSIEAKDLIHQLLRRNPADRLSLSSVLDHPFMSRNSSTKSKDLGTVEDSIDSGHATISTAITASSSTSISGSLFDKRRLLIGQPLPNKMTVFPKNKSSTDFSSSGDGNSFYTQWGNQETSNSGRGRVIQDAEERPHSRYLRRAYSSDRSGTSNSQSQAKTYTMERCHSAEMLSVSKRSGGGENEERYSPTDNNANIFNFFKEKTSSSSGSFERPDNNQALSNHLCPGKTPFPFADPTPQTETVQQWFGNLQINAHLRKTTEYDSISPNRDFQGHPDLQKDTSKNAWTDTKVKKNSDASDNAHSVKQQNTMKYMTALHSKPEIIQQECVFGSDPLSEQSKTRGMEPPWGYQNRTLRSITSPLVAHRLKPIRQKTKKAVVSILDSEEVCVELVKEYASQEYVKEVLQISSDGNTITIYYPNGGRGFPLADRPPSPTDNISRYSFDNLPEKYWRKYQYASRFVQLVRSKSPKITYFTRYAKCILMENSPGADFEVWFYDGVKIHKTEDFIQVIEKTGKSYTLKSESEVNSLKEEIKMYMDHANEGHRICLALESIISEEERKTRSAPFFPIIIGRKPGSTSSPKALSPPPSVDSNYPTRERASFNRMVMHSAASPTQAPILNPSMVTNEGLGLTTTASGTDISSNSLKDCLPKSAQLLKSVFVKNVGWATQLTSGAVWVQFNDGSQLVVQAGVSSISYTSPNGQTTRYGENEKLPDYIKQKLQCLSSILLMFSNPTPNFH
T7 sequence (O75716 whole entry): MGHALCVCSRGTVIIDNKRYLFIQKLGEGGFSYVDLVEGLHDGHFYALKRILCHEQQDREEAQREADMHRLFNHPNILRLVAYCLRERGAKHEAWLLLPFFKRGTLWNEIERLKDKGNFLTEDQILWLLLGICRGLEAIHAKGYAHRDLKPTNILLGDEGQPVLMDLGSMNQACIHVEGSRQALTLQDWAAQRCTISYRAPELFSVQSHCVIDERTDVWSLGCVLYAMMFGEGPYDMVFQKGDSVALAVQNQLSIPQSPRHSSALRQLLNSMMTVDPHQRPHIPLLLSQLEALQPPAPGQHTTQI

In the series on HT-29 cells (5 µM), `COc1ccc(-c2cc(C(=O)Nc3cc(-c4c(-c5ccc(F)cc5)noc4C(C)C)ccn3)n(CC3NCC(O)C3O)c2)cc1` (stereo not shown) [29d] yielded a viability at 5 µM of 76 ± 13%. Besides, in the series with HT-29 cells (10 µM), the viability at 10 µM stood at 51 ± 8%. The compound also showed a viability at 20 µM in the series on HT-29 cells (20 µM) of 14 ± 2%. The midpoint of the response with HT-29 cells, the EC50, lay at 8 ± 1.7 µM. For the same compound, in [1], the “formation of Pictet-Spengler products in aqueous solution with PEG” value is “significant product formation”. The remaining activity at 1 µM turned out to be 90% at BUB1B; 84% at CDK19/CycC; 80% at DYRK4; 88% on EPHB2; 105% on LIMK1; 92% at SAK. Besides, the remaining activity at 1 µM at TSF1 was found to be 86%; at mTOR, 127%.
